In patent publication US6372749B1, “Pyrazolo[1,5-a]pyrimidine derivatives” (Otsuka Pharmaceutical Factory, Inc., priority 1998, dated 2002):

Assays:
S.D. rats = assay: Recovery of pain threshold after substance P injection (Randall-Sellitto method); type: in vivo; settings: male S.D. rats, oral 5% gum arabic suspension 10 ml/kg, substance P 25 ng/0.1 ml s.c. in left hind paw
Description: Using 6-week-old male S.D. rats (7 rats in each group), the pain threshold of each rat's left hind paw plantar was measured using an Analgesy-Meter (product of Unicom) in accordance with the Randall-Sellitto method [Randall, L. O. and Sellitto, J. J., Arch. Int. Pharmacodyn., 111, 409 (1957)]. The value thus obtained was termed “pre-value”.
One hour after the measurement of the pre-value, a 5% gum arabic suspension containing the compound of the invention was orally administered to the rats of the test group in an amount of 10 ml/kg, whereas a 5% gum arabic suspension (not containing the compound of the invention) was orally administered to the rats of the control group in an amount of 10 ml/kg.
One hour later, a physiological saline solution containing substance P (25 ng/0.1 ml) was subcutaneously injected into the left hind paw plantar of each rat.
The pain threshold of each rat's left hind paw was measured in the same manner as above at predetermined time intervals from the substance P injection. The measured value was termed “post-value”.
The recovery (%) of the pain threshold was calculated from the post-values and the pre-values of the test group and the control group, by means of the following formula: [formula]

[1] = time of measurement 60 minutes later

| melting point | Compound | Recovery (%) of the pain threshold (the highest recovery %) (S.D. rats; [1]) | Recovery (%) of the pain threshold (the highest recovery %) (S.D. rats; time of measurement 30 minutes later) |
| --- | --- | --- | --- |
|  | CCCCc1cc(/C=C/c2cc(OC)c(OC)c(OC)c2)n2nccc2n1 [Example 1, (E)-5-n-butyl-7-[2-(3,4,5-trimethoxyphenyl)ethenyl]pyrazolo[1,5-a]pyrimidine] | 47.8% |  |
|  | CCCCc1cc(/C=C/c2ccc(Cl)cc2)n2nccc2n1 [Example 8, (E)-5-n-butyl-7-[2-(4-chlorophenyl)ethenyl]pyrazolo[1,5-a]pyrimidine] |  | 36.2% |
|  | CCCCc1cc(/C(=C/c2cc(OC)c(OC)c(OC)c2)SC)n2nccc2n1 [Example 12, (Z)-5-n-butyl-7-[1-methylthio-2-(3,4,5-trimethoxyphenyl)ethenyl]pyrazolo[1,5-a]pyrimidine] | 41.5% |  |
|  | CCCCc1cc(/C(=C\c2cc(OC)c(OC)c(OC)c2)C(=O)O)n2nccc2n1 [Example 40, (E) 2-(5-n-butylpyrazolo[1,5-a]pyrimidin-7-yl)-3-(3,4,5-trimethoxyphenyl)acrylic Acid] | 47.2% |  |
| > 152 °C (dec.) | CCCCc1cc(/C(=C\c2cc(OC)c(O)c(OC)c2)C(=O)O)n2nccc2n1 [Example 109, (E) 2-(5-n-butylpyrazolo[1,5-a]pyrimidin-7-yl)-3-(4-hydroxy-3,5-dimethoxyphenyl)acrylic acid] | 52.1% |  |
